Like-named read-outs stand apart in the source and are kept apart here. One block for each compound: values may come before it. Residues, ends and D or L forms follow the SMILES beside them. *: point of attachment. Cbz = O=C(OCc1ccccc1)*
Columns and labels:
BxPC3 cells (shSki) = experiment: MTT cell viability assay, BxPC3 shSki; assay type: cell-based; settings: Homo sapiens, BXPC-3, 72 hr
Experimental: (§1) FIG. 24. Effect of the prodrug on cell viability of BxPC3 cells (shGFP and shSki). Cells were treated with the indicated dose of drugs (BKAc-5FCR or 5FCR) for 72 hr followed by MTT assay. Data represent mean values of triplicate measurements±standard deviation. IC50 values were derived from nonlinear curve fit of the dose response data using an outlier's exclusion, variable slope model (GraphPad Prism software). All values are means of at least two independent experiments.
(§2) The in vitro efficacy of the compounds in a series of BxPC3 and CFPac-1 derivatives with reduced Class I HDAC activity following Ski knockdown (shSki), HDAC3 knockdown and control (shGFP) was assessed. The growth inhibitory/viability effects of the compounds (IC50 value, the concentration resulting in 50% growth inhibition) on the various cell lines were determined by dose response curve analysis (GraphPad Prism software) of MTT [3-(4,5dimethylthiazol-2-yl)-2,5-diphenyl-tetrazolium bromide] cell viability assay. If the prodrugs are activated in an HDAC-dependent manner, the cells with reduced HDAC activity would be predicted to be more resistant to the prodrug treatment than control cells, while the effect of free parental drugs on both cells would be expected to be similar.

BxPC3 cells (shGFP) = experiment: MTT cell viability assay, BxPC3 shGFP; assay type: cell-based; settings: Homo sapiens, BXPC-3, 72 hr
Experimental: as §1, §2

BXPC3 cells = experiment: MTS cell viability assay with or without TSA; assay type: cell-based, human; settings: 20 μM, 72 hr, TSA 50 nM
Experimental: FIG. 25. Selective cytotoxicity by BKAc-5FCR. Human pancreatic BXPC3 cells were treated with DMSO (vehicle), BKAc-5FCR (20 μM), or 5FCR (20 μM) for 72 hr with or without TSA (50 nM) followed by MTS cell viability assay. Representative phase contrast images of cells treated with DMSO (vehicle) or BKAc-5FCR (20 μM) for 72 hr with or without TSA (50 nM) are shown.

[1] = test system: HDAC and endogenous protease (cathepsin L) activity in BxPC3 and CFPac-1 cells; experiment: Live cell enzymatic assay with Boc-Lys(Ac)-AMC, release of AMC; assay type: cell-based; settings: for Activation of substrate Boc-Lys(Ac)-AMC: substrate 25 μM, 6 hr
Experimental: FIG. 5. A. HDAC assay using different substrates in BxPC3 cells (shGFP and shSki). Cells were incubated with Boc-Lys(Ac)-AMC or Ac-Arg-Gly-Lys(Ac)-AMC (25 μM) for 1 hr with DMSO (vehicle) or TSA (1 μM) as indicated, followed by cell lysis and trypsin treatment, and fluorescence measurements. Data represent mean values of triplicate measurements±standard deviation. RFU, relative fluorescent units. B. Similar experiment was done as in A but without cell lysis and trypsin treatment. Cells were incubated with the substrates for 2.5 hr.
FIG. 6. A. Release of AMC by combined HDAC and endogenous protease-dependent enzymatic reaction in BxPC3 and CFPac-1 cells (shGFP and shSki). Cells were incubated with substrate Boc-Lys(Ac)-AMC (25 μM) for 6 hr with DMSO (vehicle), TSA (1 μM), or Z-FY-CHO (10 μM) as indicated, followed by fluorescence measurements. Data represent mean values of triplicate measurements±standard deviation. RFU, relative fluorescent units. B. Time course of AMC release in BxPC3 cells (shGFP and shSki). Each cells were incubated with Boc-Lys(Ac)-AMC (25 μM) for 2.5, 6.0, and 23 hr with DMSO (vehicle) or TSA (1 μM) as indicated.
Tissue culture based standard HDAC assays were performed by commercially available fluorimetric HDAC assay kit (SensoLyte, AnaSpec) according to the manufacturer's instruction with modification of using 25 μM Boc-Lys(Ac)-AMC (Bachem) as substrate and measuring parameter (Ex/Em=355 nm/460 nm) for AMC. […] After 15 m incubation at room temperature, the fluorescent signal of AMC was measured by SpectraMax M5 microplate reader (Molecular Devices) at Ex/Em=355 nm/460 nm. Live cell lysyl endopeptidase assay was performed by applying the substrate 25 μM Boc-Lys-AMC (Bachem) [either with DMSO or 100 μM Z-FY-CHO (EMD)] to the overnight culture seeded from 6×10^4 cells in 100 μl medium in 96-well tissue culture plates, followed by 20 h incubation at 37° C. with 5% CO2 atmosphere, then the fluorescent signal of AMC was measured. Live cell enzymatic assay using Boc-Lys(Ac)-AMC was performed by applying the substrate 25 μM Boc-Lys(Ac)-AMC (either with DMSO, 1 μM TSA or 100 μM Z-FY-CHO) to the overnight culture seeded from 6×10^4 cells in 100 μl medium in 96-well tissue culture plates, followed by 20 h incubation at 37° C. with 5% CO2 atmosphere, then the fluorescent signal of AMC was measured. […]
Fluorescence measurement was done at λex=390 nm and λem=460 nm for AMC. […] Cells were then lysed and the lysates incubated with exogenously added excess trypsin to cleave only those lysine residues that are de-acetylated and activate fluorescence. […]

[2] = test system: Puro-incorporated proteins in HCT116, HT29, CCD841-CoN and Caco-2 cells; experiment: Immunoblotting of Puro-incorporated proteins in cell lysates; assay type: cell-based, human; settings: Puro 2.1 μM, 16 h, with or without TSA 0.5 μM
Experimental: (§3) FIG. 27. Levels of Puro-incorporated proteins in the cells were monitored by immunoblotting. Indicated cell lines were treated either with vehicle control DMSO or Boc-KAc-Puro (16.9 μM) in the presence or absence of TSA (0.5 μM) for 20 h, followed by preparation of cell lysates. The lower panel (anti-α-Tubulin) serves as a loading control.
as §3, with “28.” for “27.”, “Puro (2.1” for “Boc-KAc-Puro (16.9”, “16” for “20”, “lysates. […]” for “lysates.”
Cultured cells or tissue samples were sonicated in RIPA lysis buffer (1% NP-40, 0.1% SDS, 50 mM Tris-HCl pH 7.4, 150 mM NaCl, 0.5% sodium deoxycholate, 1 mM EDTA) supplemented with PMSF and protease inhibitor cocktail (Roche) on ice followed by clarification. Protein lysates were separated on sodium dodecyl sulfate-polyacrylamide gels and transferred onto nitrocellulose membranes (Whatman). The primary antibodies used were anti-puromycin (3RH11, KeraFAST) and anti-α-tubulin (Sigma-Aldrich). Proteins of interest were detected with anti-mouse secondary antibody by chemiluminescence (ECL Kit, GE Healthcare Life Sciences).

[3] = single administration, cited from earlier work
[4] = test system: non-malignant Caco-2 cells; experiment: MTS cell viability assay, Caco-2; assay type: cell-based, human; settings: parental Puro, MTS, 3 d
Experimental: FIG. 13. Inhibition of cell viability by BKAc-Puro is presented in dose-response curve format for the same cell lines as in FIG. 8. The cell lines were treated with DMSO or the indicated doses of agent (4.22, 8.44, 16.9, 33.8, 67.5, or 135 μM) for 5 d followed by MTS assay. Data represent mean values of triplicate measurements±s.d. (n=3). IC50 values were fit by logistic regression.
FIG. 14. Inhibition of cell viability by parental Puro. The cell lines were treated with the indicated doses of Puro (0, 1.1, 2.1, 4.2, or 8.4 μM) for 3 d followed by MTS assay. Data represent mean values of triplicate measurements±s.d.
Cell number was determined by cell counting using improved Neubauer hemacytometer. Cell viability was calculated as the number of viable cells divided by the total number of cells using Trypan Blue Stain (Invitrogen) to distinguish non-viable cells. Data were obtained from duplicated samples with quadruplicate measurements. MTS based cell viability assay was performed using CellTiter 96 Aqueous Cell Proliferation Assay (Promega) according to the manufacturer's instruction. Either 1 μl of DMSO alone or variable concentrations of BKAc-Puro or Puro in DMSO were added to the cell lines seeded at 5×10^4 cells per well in 96-well tissue culture plates in 100 μl of the growth medium, followed by 3-5 d incubation at 37° C. with 5% CO2 atmosphere. Then 20 μl of the MTS reagent was added to each well. After additional 2-3 h incubation, the absorbance of the formazan at 490 nm was measured by the microplate reader. Percent cell viability was expressed relative to the wells containing cells treated with DMSO alone. Data were obtained from triplicate measurements. […] Determination of non-viable cells using PI staining was performed by adding 1 μg/ml of PI solution (Sigma) to the cell culture, prior to the examination under fluorescence microscopy (Axiovert 3, Carl Zeiss) through a×32 objective equipped with a digital imaging processor (Infinity 3, Lumenera).

cells = experiment: 72 hr in vitro cytotoxicity with TSA; assay type: cell-based; settings: TSA 1 μM
Source text: The prodrugs that are synthesized may have some basal level of cytotoxicity before they are activated by HDAC3. One way to determine the IC50 values of the uncleaved forms of the prodrugs would be to use HDAC inhibitors both in vitro and in vivo. […] […] […] For example, among available HDAC inhibitors, SAHA (Vorinostat), a FDA approved pharmaceutical HDAC inhibitor (Bradner, J. E. et al. 2010), is known to inhibit all of these HDACs with much lower cytotoxicity than TSA. Thus, SAHA is an alternative HDAC inhibitor for the prodrug evaluation as well. By comparing the prodrug ICo values for cytotoxicity under conditions of HDAC inhibition with those values where HDACs are active we are able to provide data on the HDAC dependence of our new class of prodrugs.

[5] = target: T1, lysyl endopeptidase activity (CTSL) in live cells (Homo sapiens, UniProt P07711); experiment: Live cell lysyl endopeptidase assay with Boc-Lys-AMC; assay type: cell-based; settings: Z-FY-CHO 100 μM, substrate 25 μM, 20 h
T1 construct: endogenous in cells; host or cells: Panel of cultured lines: Caco-2, COGA-10, HCA-7, HT29, HCT116, CCD841-CoN, MiaPaca-2, BXPC-3, HepG2, HeLa (human) and Eph4 (mouse)
T1 sequence (P07711 114-288 limits assumed): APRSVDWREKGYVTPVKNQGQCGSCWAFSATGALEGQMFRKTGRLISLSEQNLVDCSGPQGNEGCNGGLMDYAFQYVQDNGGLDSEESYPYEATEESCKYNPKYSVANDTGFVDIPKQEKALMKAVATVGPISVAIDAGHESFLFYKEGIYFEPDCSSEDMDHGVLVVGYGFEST
T1 sequence (P07711 292-333 limits assumed): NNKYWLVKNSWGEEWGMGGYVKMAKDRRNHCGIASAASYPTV
Experimental: FIG. 2. Comparative live cell lysyl endopeptidase activity of the same cell lines as in FIG. 1 using substrate Boc-Lys-AMC either with vehicle control DMSO or Z-FY-CHO (100 μM). Data represent mean values of triplicate measurements±s.d. RFU, relative fluorescent units.
Tissue culture based standard HDAC assays were performed by commercially available fluorimetric HDAC assay kit (SensoLyte, AnaSpec) according to the manufacturer's instruction with modification of using 25 μM Boc-Lys(Ac)-AMC (Bachem) as substrate and measuring parameter (Ex/Em=355 nm/460 nm) for AMC. Basically, HDAC substrate 25 μM Boc-Lys(Ac)-AMC [either with DMSO or 1 μM TSA (Sigma)] was applied to the overnight culture seeded from 6×10^4 cells in 100 μl medium in 96-well tissue culture plates, followed by 2 to 3 h incubation at 37° C. with 5% CO2 atmosphere. […] After 15 m incubation at room temperature, the fluorescent signal of AMC was measured by SpectraMax M5 microplate reader (Molecular Devices) at Ex/Em=355 nm/460 nm. Live cell lysyl endopeptidase assay was performed by applying the substrate 25 μM Boc-Lys-AMC (Bachem) [either with DMSO or 100 μM Z-FY-CHO (EMD)] to the overnight culture seeded from 6×10^4 cells in 100 μl medium in 96-well tissue culture plates, followed by 20 h incubation at 37° C. with 5% CO2 atmosphere, then the fluorescent signal of AMC was measured. […]

IC50 (BxPC3 cells (shSki)): 1200 nM
IC50 (BxPC3 cells (shGFP)): 1300 nM
SMILES: Nc1nc(=O)n([C@@H]2O[C@H](CO)[C@@H](O)[C@H]2O)cc1F [5FCR, 5-fluorocytidine]

SMILES: CC(=O)NCCCCC(NC(=O)OC(C)(C)C)C(=O)Nc1nc(=O)n([C@@H]2O[C@H](CO)[C@@H](O)[C@H]2O)cc1F (stereo partly drawn) [BKAc-5FCR, t-butyl (6-acetamido-1-((1-((2R,3R,4S,5R)-3,4-dihydroxy-5-(hydroxymethyl)tetrahydrofuran-2-yl)-5-fluoro-2-oxo-1,2-dihydropyrimidin-4-yl)amino)-1-oxohexan-2-yl) carbamate]
Cytotoxic effect in the presence of HDAC inhibitor TSA (BXPC3 cells): substantially compromised

SMILES: CC(=O)NCCCC[C@H](NC(=O)OC(C)(C)C)C(=O)Nc1ccc2c(C)cc(=O)oc2c1 [Boc-Lys(Ac)-AMC]
Time course of AMC release ([1]; BxPC3, 25 μM, over 20 hr): released linearly
Activation in live cells relative to total HDAC activity ([1]; BxPC3 live cells, 25 μM, 2.5 hr, without lysis and trypsin): approximately 50%

SMILES: COc1ccc(C[C@H](N)C(=O)N[C@H]2[C@@H](O)[C@H](n3cnc4c(N(C)C)ncnc43)O[C@@H]2CO)cc1 [Puro, puromycin]
Puro incorporation between cell lines regardless of TSA treatment [2]: no difference
LD50 ([3]; intraperitoneally): 580 mg/kg
LD50 ([3]; intravenously): 335 mg/kg
LD50 ([3]; orally): 720 mg/kg
Effect on cell viability [4]: effective

SMILES: CC(/C=C/C(=O)NO)=C\[C@@H](C)C(=O)c1ccc(N(C)C)cc1 [TSA, Trichostatin A]
Activation of substrate Boc-Lys(Ac)-AMC ([1]; TSA 1 μM): completely inhibited activation
Cytotoxicity (cells): cytotoxic effect

Release of AMC [5]: significantly blocked
SMILES: O=C[C@H](Cc1ccc(O)cc1)NC(=O)[C@H](Cc1ccccc1)NC(=O)OCc1ccccc1 [Z-FY-CHO] (Cbz-Phe-Tyr-aldehyde)
Activation of substrate Boc-Lys(Ac)-AMC ([1]; Z-FY-CHO 10 μM): completely abrogated
